In patent US9708279B2, “2-acylaminothiazoles for the treatment of cancer” (UNIVERSITA′ DEGLI STUDI DI MILANO-BICOCCA, priority 2013, dated 2017):

System: parental untransformed BaF3 cells
Experiment: Tritiated thymidine uptake cell proliferation assay, parental BaF3
Type: cell-based
Conditions: Mus musculus, BaF3, read-out: Parental IC50
Protocol: Tritiated Thymidine Uptake Cell Proliferation Assay
The parent untransformed BaF3 cells and ALK-negative cells are used as controls. Cells are seeded in U-bottomed 96-well plates at 10 000 cells/well in a volume of 100 μL in supplemented medium. In the case of the parent untransformed BaF3 cells, the medium is supplemented with IL-3. Serial dilutions of inhibitors are added to the appropriate wells and volumes adjusted to 200 μL. Controls were treated with the equivalent volume of vehicle, DMSO, alone. Plates are incubated at 37° C. for 72 h. ^3[H]-thymidine (1 μCiCi/well) is added for the last 8 h of incubation. Cells are harvested on to paper filters and ^3[H]-thymidine incorporation is measured using a β scintillation counter (1430 MicroBeta, Wallac, Turku, Finland). The 50% inhibitory concentration (IC50) is defined as the concentration of inhibitor, expressed in micromolar, that give a 50% decrease in ^3[H]-thymidine uptake compared with controls.

Compound | IC50 [µM]
CN1CCN(Cc2ccc(C(=O)Nc3nc(-c4cccc(C#Cc5ccccc5)c4)cs3)cc2)CC1 [Example 1, 4-((4-methylpiperazin-1-yl)methyl)-N-(4-(3-(phenylethynyl)phenyl)thiazol-2-yl)benzamide] | 4.7
Cc1ccc(C#Cc2cccc(-c3csc(NC(=O)c4ccc(CN5CCN(C)CC5)cc4)n3)c2)cc1 [Example 2, 4-((4-methylpiperazin-1-yl)methyl)-N-(4-(3-(p-tolylethynyl)phenyl)thiazol-2-yl)benzamide] | 5.5
COc1ccc(C#Cc2cccc(-c3csc(NC(=O)c4ccc(CN5CCN(C)CC5)cc4)n3)c2)cc1 [Example 3, N-(4-(3-((4-methoxyphenyl)ethynyl)phenyl)thiazol-2-yl)-4-((4-methylpiperazin-1-yl)methyl)benzamide] | 2.3
Cc1ccc(-c2csc(NC(=O)c3ccc(CN4CCN(C)CC4)cc3)n2)cc1C#Cc1ccccc1 [Example 4, N-(4-(4-methyl-3-(phenylethynyl)phenyl)thiazol-2-yl)-4-((4-methylpiperazin-1-yl)methyl)benzamide] | 5.3
Cc1ccc(C#Cc2cc(-c3csc(NC(=O)c4ccc(CN5CCN(C)CC5)cc4)n3)ccc2C)cc1 [Example 5, N-(4-(4-methyl-3-(p-tolylethynyl)phenyl)thiazol-2-yl)-4-((4-methylpiperazin-1-yl)methyl)benzamide] | 5.3
Cc1ccc(-c2csc(NC(=O)c3ccc(CN4CCN(C)CC4)cc3)n2)cc1C#Cc1ccccc1C(F)(F)F [Example 7, N-(4-(4-methyl-3-((2-(trifluoromethyl)phenyl)ethynyl)phenyl)thiazol-2-yl)-4-((4-methylpiperazin-1-yl)methyl)benzamide] | 5
COc1ccccc1C#Cc1cc(-c2csc(NC(=O)c3ccc(CN4CCN(C)CC4)cc3)n2)ccc1C [Example 8, N-(4-(3-((2-methoxyphenyl)ethynyl)-4-methylphenyl)thiazol-2-yl)-4-((4-methylpiperazin-1-yl)methyl)benzamide] | 1.5
Cc1ccc(C#Cc2ccc(-c3csc(NC(=O)c4ccc(CN5CCN(C)CC5)cc4)n3)cc2C)cc1 [Example 10, N-(4-(3-methyl-4-(p-tolylethynyl)phenyl)thiazol-2-yl)-4-((4-methylpiperazin-1-yl)methyl)benzamide] | 3
Cc1cc(-c2csc(NC(=O)c3ccc(CN4CCN(C)CC4)cc3)n2)ccc1C#Cc1ccccc1C(F)(F)F [Example 11, N-(4-(3-methyl-4-((2-(trifluoromethyl)phenyl)ethynyl)phenyl)thiazol-2-yl)-4-((4-methylpiperazin-1-yl)methyl)benzamide] | 3.2
CN1CCN(Cc2ccc(C(=O)Nc3nc(-c4cccc(C#Cc5ccccc5C(F)(F)F)c4)cs3)cc2)CC1 [Example 12, 4-((4-methylpiperazin-1-yl)methyl)-N-(4-(3-((2-(trifluoromethyl)phenyl)ethynyl)phenyl)thiazol-2-yl)benzamide] | 1.8
CN1CCN(Cc2ccc(C(=O)Nc3nc(-c4ccc(C#Cc5ccccc5C(F)(F)F)c(C#Cc5ccccc5C(F)(F)F)c4)cs3)cc2)CC1 [Example 13, N-(4-(3,4-bis((2-(trifluoromethyl)phenyl)ethynyl)phenyl)thiazol-2-yl)-4-((4-methylpiperazin-1-yl)methyl)benzamide] | 3.1
Cc1ccc(-c2csc(NC(=O)c3ccc(CN4CCN(C)CC4)cc3)n2)cc1C#C[Si](C(C)C)(C(C)C)C(C)C [Example 14, N-(4-(4-methyl-3-((triisopropylsilyl)ethynyl)phenyl)thiazol-2-yl)-4-((4-methylpiperazin-1-yl)methyl)benzamide] | 7.8
Cc1cc(-c2csc(NC(=O)c3ccc(CN4CCN(C)CC4)cc3)n2)ccc1C#C[Si](C(C)C)(C(C)C)C(C)C [Example 15, N-(4-(3-methyl-4-((triisopropylsilyl)ethynyl)phenyl)thiazol-2-yl)-4-((4-methylpiperazin-1-yl)methyl)benzamide] | 14
CC(C)[Si](C#Cc1ccc(-c2csc(NC(=O)c3ccc(CN4CCN(C)CC4)cc3)n2)cc1C#C[Si](C(C)C)(C(C)C)C(C)C)(C(C)C)C(C)C [Example 16, N-(4-(3,4-bis((triisopropylsilyl)ethynyl)phenyl)thiazol-2-yl)-4((4-methylpiperazin-1-yl)methyl)benzamide] | > 50
CC[Si](C#Cc1cccc(-c2csc(NC(=O)c3ccc(CN4CCN(C)CC4)cc3)n2)c1)(CC)CC [Example 17, 4-((4-methylpiperazin-1-yl)methyl)-N-(4-(3-((triethylsilyl)ethynyl)phenyl)thiazol-2-yl)benzamide] | 0.46
CN1CCN(Cc2ccc(C(=O)Nc3nc(-c4cccc(C#C[Si](C)(C)C)c4)cs3)cc2)CC1 [Example 18, 4-((4-methylpiperazin-1-yl)methyl)-N-(4-(3-((trimethylsilyl)ethynyl)phenyl)thiazol-2-yl)benzamide] | 0.45
CN1CCN(Cc2ccc(C(=O)Nc3nc(-c4cccc(C#CC5=CCCCC5)c4)cs3)cc2)CC1 [Example 19, N-(4-(3-(cyclohex-1-en-1-ylethynyl)phenyl)thiazol-2-yl)-4-((4-methylpiperazin-1-yl)methyl)benzamide] | 0.49
CCCCC#Cc1cccc(-c2csc(NC(=O)c3ccc(CN4CCN(C)CC4)cc3)n2)c1 [Example 20, N-(4-(3-(hex-1-yn-1-yl)phenyl)thiazol-2-yl)-4-((4-methylpiperazin-1-yl)methyl)benzamide] | 7.3
CN1CCN(Cc2ccc(C(=O)Nc3nc(-c4cccc(C#CCO[Si](c5ccccc5)(c5ccccc5)C(C)(C)C)c4)cs3)cc2)CC1 [Example 21, N-(4-(3-(3-((tert-butyldiphenylsilyl)oxy)prop-1-yn-1-yl)phenyl)thiazol-2-yl)-4-((4-methylpiperazin-1-yl)methyl)benzamide] | 12
CC(C)[Si](OCC#Cc1cccc(-c2csc(NC(=O)c3ccc(CN4CCN(C)CC4)cc3)n2)c1)(C(C)C)C(C)C [Example 22, 4-((4-methylpiperazin-1-yl)methyl)-N-(4-(3-(3-((triisopropylsilyl)oxy)prop-1-yn-1-yl)phenyl)thiazol-2-yl)benzamide] | 8.5
CN1CCN(Cc2ccc(C(=O)Nc3nc(-c4cccc(C#CCO[Si](C)(C)C(C)(C)C)c4)cs3)cc2)CC1 [Example 23, N-(4-(3-(3-((tert-butyldimethylsilyl)oxy)prop-1-yn-1-yl)phenyl)thiazol-2-yl)-4-((4-methylpiperazin-1-yl)methyl)benzamide] | 5.9
CN1CCN(Cc2ccc(C(=O)Nc3nc(-c4cccc(C#C[Si](C)(C)C(C)(C)C)c4)cs3)cc2)CC1 [Example 24, N-(4-(3-((tert-butyldimethylsilyl)ethynyl)phenyl)thiazol-2-yl)-4-((4-methylpiperazin-1-yl)methyl)benzamide] | 2.4
CN1CCN(Cc2ccc(C(=O)Nc3nc(-c4cccc(C#C[Si](c5ccccc5)(c5ccccc5)C(C)(C)C)c4)cs3)cc2)CC1 [Example 25, N-(4-(3-((tert-butyldiphenylsilyl)ethynyl)phenyl)thiazol-2-yl)-4-((4-methylpiperazin-1-yl)methyl)benzamide] | 12
CC(C)[Si](C#Cc1cccc(-c2csc(NC(=O)c3ccc(-c4ccc(C(=O)N5CCN(C)CC5)cc4)o3)n2)c1)(C(C)C)C(C)C [Example 26, 5-(4-(4-methylpiperazine-1-carbonyl)phenyl)-N-(4-(3-((triisopropylsilyl)ethynyl)phenyl)thiazol-2-yl)furan-2-carboxamide] | 11
CN1CCN(C(=O)c2ccc(-c3ccc(C(=O)Nc4nc(-c5cccc(C#C[Si](C)(C)C(C)(C)C)c5)cs4)o3)cc2)CC1 [Example 27, N-(4-(3-((tert-butyldimethylsilyl)ethynyl)phenyl)thiazol-2-yl)-5-(4-(4-methylpiperazine-1-carbonyl)phenyl)furan-2-carboxamide] | 2.3
CC(C)[Si](OCC#Cc1cccc(-c2csc(NC(=O)c3ccc(-c4ccc(C(=O)N5CCN(C)CC5)cc4)o3)n2)c1)(C(C)C)C(C)C [Example 28, 5-(4-(4-methylpiperazine-1-carbonyl)phenyl)-N-(4-(3-(3-((triisopropylsilyl)oxy)prop-1-yn-1-yl)phenyl)thiazol-2-yl)furan-2-carboxamide] | 3.7
CN1CCN(C(=O)c2ccc(-c3ccc(C(=O)Nc4nc(-c5cccc(C#Cc6ccccc6C(F)(F)F)c5)cs4)o3)cc2)CC1 [Example 29, 5-(4-(4-methylpiperazine-1-carbonyl)phenyl)-N-(4-(3-((2-(trifluoromethyl)phenyl)ethynyl)phenyl)thiazol-2-yl)furan-2-carboxamide] | 10
CN1CCN(Cc2ccc(C(=O)Nc3nc(-c4cccc(C#CCOC(c5ccccc5)(c5ccccc5)c5ccccc5)c4)cs3)cc2)CC1 [Example 30, 4-((4-methylpiperazin-1-yl)methyl)-N-(4-(3-(3-(trityloxy)prop-1-yn-1-yl)phenyl)thiazol-2-yl)benzamide] | 10
CN1CCN(Cc2ccc(C(=O)Nc3nc(-c4cccc(C#Cc5ccccc5F)c4)cs3)cc2)CC1 [Example 31, N-(4-(3-((2-fluorophenyl)ethynyl)phenyl)thiazol-2-yl)-4-((4-methylpiperazin-1-yl)methyl)benzamide] | 2.2
CN1CCN(Cc2ccc(C(=O)Nc3nc(-c4cccc(C#Cc5ccc(F)cc5)c4)cs3)cc2)CC1 [Example 32, N-(4-(3-((4-fluorophenyl)ethynyl)phenyl)thiazol-2-yl)-4-((4-methylpiperazin-1-yl)methyl)benzamide] | 2.4
